# Assays:
# Test in all cases: KINOMEscan kinase binding assay (Eurofins/DiscoveRx), % Ctrl
# [1] = target: T1, kinases (Homo sapiens, UniProt P00519, H396P); conditions: 1 μM; for % Ctrl, ABL1(H396P)-nonphosphorylated: target ABL1(H396P)-nonphosphorylated; for % Ctrl, ABL1(H396P)-phosphorylated: target ABL1(H396P)-phosphorylated
# T1 construct: purchased Eurofins/DiscoveRx; host or cells: E. coli BL21-derived host (T7 phage display) for most kinases; HEK-293 for the rest
# In short: (§1)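 Read-out is qPCR of kinase eluted from ligand-coated streptavidin beads after 1 h room-temperature competition with test compound. Values are % Ctrl at the tested concentration, lower meaning tighter binding.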
# [2] = target: T2, kinases (Homo sapiens, UniProt P09619); conditions: 1 μM; target PDGFRB
# T2 construct: purchased Eurofins/DiscoveRx; host or cells: E. coli BL21-derived host (T7 phage display) for most kinases; HEK-293 for the rest
# In short: as §1
# [3] = target: T3, kinases (Homo sapiens, UniProt P00519, F317I); conditions: 1 μM; for % Ctrl, ABL1(F317I)-nonphosphorylated: target ABL1(F317I)-nonphosphorylated; for % Ctrl, ABL1(F317I)-phosphorylated: target ABL1(F317I)-phosphorylated
# T3 construct: purchased Eurofins/DiscoveRx; host or cells: E. coli BL21-derived host (T7 phage display) for most kinases; HEK-293 for the rest
# In short: as §1
# [4] = target: T4, kinases (Homo sapiens, UniProt P36888, D835H); conditions: 1 μM; target FLT3(D835H)
# T4 construct: purchased Eurofins/DiscoveRx; host or cells: E. coli BL21-derived host (T7 phage display) for most kinases; HEK-293 for the rest
# T4 sequence (P36888 27-993 D835H): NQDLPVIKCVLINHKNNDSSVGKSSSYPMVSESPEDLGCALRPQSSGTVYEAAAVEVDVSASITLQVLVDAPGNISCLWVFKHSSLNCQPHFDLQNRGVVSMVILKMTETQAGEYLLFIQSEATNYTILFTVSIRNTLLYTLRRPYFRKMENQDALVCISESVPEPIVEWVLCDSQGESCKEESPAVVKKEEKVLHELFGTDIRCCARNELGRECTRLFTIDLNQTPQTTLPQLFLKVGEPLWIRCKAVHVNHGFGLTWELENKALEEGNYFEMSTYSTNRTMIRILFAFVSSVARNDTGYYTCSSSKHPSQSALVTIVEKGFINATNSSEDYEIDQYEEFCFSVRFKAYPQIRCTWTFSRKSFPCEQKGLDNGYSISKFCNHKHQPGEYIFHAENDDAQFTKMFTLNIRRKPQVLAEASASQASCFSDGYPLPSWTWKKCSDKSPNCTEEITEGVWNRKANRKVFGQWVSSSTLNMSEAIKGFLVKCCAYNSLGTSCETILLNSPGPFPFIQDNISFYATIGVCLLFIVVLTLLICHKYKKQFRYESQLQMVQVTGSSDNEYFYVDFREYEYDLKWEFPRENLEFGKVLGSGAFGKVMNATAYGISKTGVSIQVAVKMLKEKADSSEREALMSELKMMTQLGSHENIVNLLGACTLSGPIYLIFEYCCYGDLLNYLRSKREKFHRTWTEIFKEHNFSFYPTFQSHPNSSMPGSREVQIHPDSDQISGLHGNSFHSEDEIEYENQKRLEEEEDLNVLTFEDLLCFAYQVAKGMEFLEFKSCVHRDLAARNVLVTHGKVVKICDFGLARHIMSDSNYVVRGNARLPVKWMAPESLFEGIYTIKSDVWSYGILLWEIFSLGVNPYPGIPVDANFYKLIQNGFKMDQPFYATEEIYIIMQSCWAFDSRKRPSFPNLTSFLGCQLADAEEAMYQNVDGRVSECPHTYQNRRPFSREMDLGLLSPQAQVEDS
# In short: as §1
# [5] = target: T5, kinases (Homo sapiens, UniProt P00519, F317L); conditions: 1 μM; for % Ctrl, ABL1(F317L)-nonphosphorylated: target ABL1(F317L)-nonphosphorylated; for % Ctrl, ABL1(F317L)-phosphorylated: target ABL1(F317L)-phosphorylated
# T5 construct: purchased Eurofins/DiscoveRx; host or cells: E. coli BL21-derived host (T7 phage display) for most kinases; HEK-293 for the rest
# In short: as §1
# T2 sequence (P09619 33-1106): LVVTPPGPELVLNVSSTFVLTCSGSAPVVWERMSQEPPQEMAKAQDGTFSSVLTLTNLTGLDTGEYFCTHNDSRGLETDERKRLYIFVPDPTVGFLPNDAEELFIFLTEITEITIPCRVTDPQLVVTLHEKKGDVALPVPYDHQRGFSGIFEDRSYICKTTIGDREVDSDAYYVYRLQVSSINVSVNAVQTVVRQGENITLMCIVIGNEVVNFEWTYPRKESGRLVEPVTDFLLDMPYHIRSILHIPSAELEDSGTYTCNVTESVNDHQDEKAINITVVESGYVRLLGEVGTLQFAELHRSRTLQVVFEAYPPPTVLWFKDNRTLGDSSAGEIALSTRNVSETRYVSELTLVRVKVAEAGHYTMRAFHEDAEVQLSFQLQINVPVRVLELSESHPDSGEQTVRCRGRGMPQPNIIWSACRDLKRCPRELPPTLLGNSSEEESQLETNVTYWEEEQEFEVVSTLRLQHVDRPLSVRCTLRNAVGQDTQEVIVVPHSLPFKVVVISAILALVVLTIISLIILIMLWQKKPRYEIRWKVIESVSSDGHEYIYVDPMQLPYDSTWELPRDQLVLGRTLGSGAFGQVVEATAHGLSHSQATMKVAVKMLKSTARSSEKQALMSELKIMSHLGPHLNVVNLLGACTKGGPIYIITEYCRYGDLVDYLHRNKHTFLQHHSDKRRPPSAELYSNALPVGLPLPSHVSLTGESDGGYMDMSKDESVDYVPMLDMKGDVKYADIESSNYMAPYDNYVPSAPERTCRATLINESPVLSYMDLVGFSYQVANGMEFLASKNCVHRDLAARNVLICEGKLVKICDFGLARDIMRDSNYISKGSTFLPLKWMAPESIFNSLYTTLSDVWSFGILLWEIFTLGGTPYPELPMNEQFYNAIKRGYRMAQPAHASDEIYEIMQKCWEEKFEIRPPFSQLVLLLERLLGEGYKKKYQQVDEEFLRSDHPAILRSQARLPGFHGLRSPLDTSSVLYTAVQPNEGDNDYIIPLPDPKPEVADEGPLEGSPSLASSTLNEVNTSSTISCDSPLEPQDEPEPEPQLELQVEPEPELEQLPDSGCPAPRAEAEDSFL
SMILES,"% Ctrl, ABL1(H396P)-nonphosphorylated [1]","% Ctrl, ABL1(H396P)-phosphorylated [1]","% Ctrl, PDGFRB [2]","% Ctrl, ABL1(F317I)-nonphosphorylated [3]","% Ctrl, ABL1(F317I)-phosphorylated [3]","% Ctrl, FLT3(D835H) [4]","% Ctrl, ABL1(F317L)-nonphosphorylated [5]","% Ctrl, ABL1(F317L)-phosphorylated [5]"
"Cc1cc2c([nH]1)/C=C1\C(=O)Nc3ccc(cc31)-c1c(noc1C(C)C)COCCN(C)C2=O [Ex. 161, [3a(4)Z]-9-methyl-16-(propan-2-yl)-10,11-dihydro-2H,13H-1,17-(ethanediylidene)[1,2]oxazolo[4,3-m]dipyrrolo[3,2-f:3′,4′-i][1,4]oxazacyclopentadecine-3,8(5H,9H)-dione]",91 % Ctrl,100 % Ctrl,98 % Ctrl,100 % Ctrl,91 % Ctrl,48 % Ctrl,93 % Ctrl,94 % Ctrl
"CN1CCOc2cc3c(cc2Cl)NC(=O)/C3=C\c2[nH]ccc2C(=O)N(C)CC1 [Ex. 164, [16a(17)Z]-19-chloro-2,5,8-trimethyl-5,6,7,8,9,10-hexahydro-12,14-(ethanediylidene)dipyrrolo[3,2-i:3′,4′-l][1,4,7]oxadiazacyclopentadecine-4,16(1H,15H)-dione]",0 % Ctrl,0 % Ctrl,0.9 % Ctrl,5.7 % Ctrl,6.7 % Ctrl,0.3 % Ctrl,1.6 % Ctrl,1.3 % Ctrl

# Second part, the molecule after the results:
"% Ctrl, ABL1(H396P)-nonphosphorylated [1]","% Ctrl, ABL1(H396P)-phosphorylated [1]","% Ctrl, PDGFRB [2]","% Ctrl, ABL1(F317I)-nonphosphorylated [3]","% Ctrl, ABL1(F317I)-phosphorylated [3]","% Ctrl, FLT3(D835H) [4]","% Ctrl, ABL1(F317L)-nonphosphorylated [5]","% Ctrl, ABL1(F317L)-phosphorylated [5]",SMILES
0.7 % Ctrl,4.3 % Ctrl,16 % Ctrl,80 % Ctrl,31 % Ctrl,0.7 % Ctrl,41 % Ctrl,8.7 % Ctrl,"Cc1cc2c([nH]1)/C=C1\C(=O)Nc3ccc(cc31)-c1cnn(C)c1OCCCN(C)C2=O [Ex. 166, [3a(4)Z]-9,14-dimethyl-9,10,11,12-tetrahydro-14H-1,17-(ethanediylidene)pyrazolo[4,3-n]dipyrrolo[3,2-g:3′,4′-j][1,5]oxazacyclopentadecine-3,8(2H,5H)-dione]"
0 % Ctrl,0 % Ctrl,0.9 % Ctrl,0.6 % Ctrl,5 % Ctrl,0.1 % Ctrl,0.6 % Ctrl,0.1 % Ctrl,"Cc1cc2c([nH]1)/C=C1\C(=O)Nc3cc(Cl)c(cc31)SCCOCCN(C)C2=O [Ex. 169, [16a(17)Z]-19-chloro-5-methyl-6,7,9,10-tetrahydro-1H-12,14-(ethanediylidene)dipyrrolo[3,4-g:2′,3′-j][1,4,13]oxathiazacyclopentadecine-4,16(5H,15H)-dione]"
0 % Ctrl,0.1 % Ctrl,1.9 % Ctrl,24 % Ctrl,9.3 % Ctrl,4.2 % Ctrl,7.1 % Ctrl,1.9 % Ctrl,"Cc1cc2c([nH]1)/C=C1\C(=O)Nc3cnc(cc31)-c1cnn(C)c1CN(C)CCN(C)C2=O [Ex. 172, [3a(4)Z]-6,9,12,14-tetramethyl-9,10,11,12,13,14-hexahydro-17,1-(azenometheno)pyrazolo[4,3-m]dipyrrolo[3,2-f:3′,4′-i][1,4]diazacyclopentadecine-3,8(2H,5H)-dione]"

# Source: US20230257396A1, “MACROCYCLES AND THEIR USE” (BLOSSOMHILL THERAPEUTICS, INC., priority 2020, published 2023)
